Tested on: MV-4-11 cells
Experiment: Gene expression microarray analysis (Affymetrix PrimeView) and GSEA
Format: cell-based, human
Design: RFU PODN (11730768_x_at) / Fold change /veh PODN (11730768_x_at) / RFU LINC00158 (11744669_a_at) / Fold change /veh LINC00158 (11744669_a_at) / RFU DUSP10 (11751237_a_at) / Fold change /veh DUSP10 (11751237_a_at) / RFU ID3 (11757404_x_at) / Fold change /veh ID3 (11757404_x_at) / RFU PLEKHG5 (11737974_s_at) / Fold change /veh PLEKHG5 (11737974_s_at) / RFU LRRC4B (11730491_at) / Fold change /veh LRRC4B (11730491_at) / RFU GIMAP4 (11747438_a_at) / Fold change /veh GIMAP4 (11747438_a_at) / RFU KRT8 (11758183_x_at) / Fold change /veh KRT8 (11758183_x_at) / RFU CNN1 (11734310_a_at) / Fold change /veh CNN1 (11734310_a_at) / RFU VPS37D (11726825_at) / Fold change /veh VPS37D (11726825_at) / RFU C10orf10 (11716522_x_at) / Fold change /veh C10orf10 (11716522_x_at) / RFU KIR2DL2 /// KIR2DL4 /// KIR2DL5A /// KIR2DL5B /// KIR2DS1 /// KIR2DS2 /// KIR2DS3 /// KIR2DS4 /// KIR3DL3 /// KIR3DL3 /// KIR3DS1 (11738374_at) / Fold change /veh KIR2DL2 /// KIR2DL4 /// KIR2DL5A /// KIR2DL5B /// KIR2DS1 /// KIR2DS2 /// KIR2DS3 /// KIR2DS4 /// KIR3DL3 /// KIR3DL3 /// KIR3DS1 (11738374_at) / RFU C1QL1 (11718748_at) / Fold change /veh C1QL1 (11718748_at) / RFU TMPRSS4 (11747572_a_at) / Fold change /veh TMPRSS4 (11747572_a_at) / RFU HAMP (11756126_x_at) / Fold change /veh HAMP (11756126_x_at) / RFU RNFT2 (11725882_a_at) / Fold change /veh RNFT2 (11725882_a_at) / RFU NR4A2 (11747474_a_at) / Fold change /veh NR4A2 (11747474_a_at) / RFU ABCC12 (11746883_a_at) / Fold change /veh ABCC12 (11746883_a_at) / RFU TMEM136 (11760407_x_at) / Fold change /veh TMEM136 (11760407_x_at) / RFU CLDN22 /// WWC2 (11732394_at) / Fold change /veh CLDN22 /// WWC2 (11732394_at) / RFU HLA-DPB1 (11760878_x_at) / Fold change /veh HLA-DPB1 (11760878_x_at) / RFU SPINT1 (11716480_a_at) / Fold change /veh SPINT1 (11716480_a_at) / RFU GAP43 (11754022_s_at) / Fold change /veh GAP43 (11754022_s_at) / RFU A4GNT (11735810_at) / Fold change /veh A4GNT (11735810_at) / RFU PRB3 (11715151_x_at) / Fold change /veh PRB3 (11715151_x_at) / RFU TUBB4B (11761932_at) / Fold change /veh TUBB4B (11761932_at) / RFU CAPN14 (11732068_a_at) / Fold change /veh CAPN14 (11732068_a_at) / RFU TMCC2 (11721928_a_at) / Fold change /veh TMCC2 (11721928_a_at) / RFU IRGQ (11745062_a_at) / Fold change /veh IRGQ (11745062_a_at) / RFU FAM174B (11720279_a_at) / Fold change /veh FAM174B (11720279_a_at) / RFU TMPRSS4 (11748680_a_at) / Fold change /veh TMPRSS4 (11748680_a_at) / RFU FAM212B (11763350_a_at) / Fold change /veh FAM212B (11763350_a_at) / RFU PLEKHG5 (11743358_a_at) / Fold change /veh PLEKHG5 (11743358_a_at) / RFU ZSCAN30 (11745921_a_at) / Fold change /veh ZSCAN30 (11745921_a_at) / RFU CMKLR1 (11741424_a_at) / Fold change /veh CMKLR1 (11741424_a_at) / RFU LOC101060620 /// MAPK8IP1 (11723275_at) / Fold change /veh LOC101060620 /// MAPK8IP1 (11723275_at) / RFU SPTSSB (11747773_x_at) / Fold change /veh SPTSSB (11747773_x_at) / RFU PRSS12 (11739890_at) / Fold change /veh PRSS12 (11739890_at) / RFU BIN1 (11741810_x_at) / Fold change /veh BIN1 (11741810_x_at) / RFU WNT11 (11732464_a_at) / Fold change /veh WNT11 (11732464_a_at) / RFU C10orf10 (11716521_a_at) / Fold change /veh C10orf10 (11716521_a_at) / RFU C5orf56 (11738089_at) / Fold change /veh C5orf56 (11738089_at) / RFU CYB561 (11721691_x_at) / Fold change /veh CYB561 (11721691_x_at) / RFU ANKRD19P (11752326_a_at) / Fold change /veh ANKRD19P (11752326_a_at) / RFU OR2T12 /// OR2T33 /// OR2T8 (11738714_s_at) / Fold change /veh OR2T12 /// OR2T33 /// OR2T8 (11738714_s_at) / RFU VCAN (11748164_a_at) / Fold change /veh VCAN (11748164_a_at) / RFU JSRP1 (11732532_at) / Fold change /veh JSRP1 (11732532_at) / RFU KRTAP10-11 (11738290_x_at) / Fold change /veh KRTAP10-11 (11738290_x_at) / RFU MYO3A (11730013_a_at) / Fold change /veh MYO3A (11730013_a_at) / RFU EBF3 (11725865_a_at) / Fold change /veh EBF3 (11725865_a_at) / RFU CAMK2N1 (11719241_x_at) / Fold change /veh CAMK2N1 (11719241_x_at) / RFU C5orf56 (11738088_a_at) / Fold change /veh C5orf56 (11738088_a_at) / RFU OLFML3 (11715873_a_at) / Fold change /veh OLFML3 (11715873_a_at) / RFU LOC100653217 /// NTM (11731650_a_at) / Fold change /veh LOC100653217 /// NTM (11731650_a_at) / RFU MAPK11 (11762145_a_at) / Fold change /veh MAPK11 (11762145_a_at) / RFU FIZ1 (11724087_x_at) / Fold change /veh FIZ1 (11724087_x_at) / RFU OASL (11726364_x_at) / Fold change /veh OASL (11726364_x_at) / RFU SOX15 (11748057_x_at) / Fold change /veh SOX15 (11748057_x_at) / RFU CD79A (11719716_a_at) / Fold change /veh CD79A (11719716_a_at) / RFU HIST1H1D (11736915_at) / Fold change /veh HIST1H1D (11736915_at) / RFU CASKIN2 (11723855_a_at) / Fold change /veh CASKIN2 (11723855_a_at) / RFU LOC730098 (11760151_x_at) / Fold change /veh LOC730098 (11760151_x_at) / RFU OR4N2 (11742367_at) / Fold change /veh OR4N2 (11742367_at) / RFU PRRT2 (11749266_a_at) / Fold change /veh PRRT2 (11749266_a_at) / RFU SNX32 (11753110_a_at) / Fold change /veh SNX32 (11753110_a_at) / RFU CDHR5 (11726645_a_at) / Fold change /veh CDHR5 (11726645_a_at) / RFU RCAN1 (11760418_a_at) / Fold change /veh RCAN1 (11760418_a_at) / RFU FAM167A (11723789_a_at) / Fold change /veh FAM167A (11723789_a_at) / RFU FAM26E (11764081_at) / Fold change /veh FAM26E (11764081_at) / RFU ISYNA1 (11749810_s_at) / Fold change /veh ISYNA1 (11749810_s_at) / RFU ACY1 (11761880_at) / Fold change /veh ACY1 (11761880_at) / RFU 11764098_at / Fold change /veh 11764098_at / RFU SAMD14 (11745864_x_at) / Fold change /veh SAMD14 (11745864_x_at) / RFU NPB (11741838_a_at) / Fold change /veh NPB (11741838_a_at) / RFU TMPRSS6 (11731388_a_at) / Fold change /veh TMPRSS6 (11731388_a_at) / RFU KRTAP10-2 (11738614_at) / Fold change /veh KRTAP10-2 (11738614_at) / RFU ARHGAP8 /// PRR5-ARHGAP8 (11727945_x_at) / Fold change /veh ARHGAP8 /// PRR5-ARHGAP8 (11727945_x_at) / RFU KRTAP5-7 /// NADSYN1 (11734609_at) / Fold change /veh KRTAP5-7 /// NADSYN1 (11734609_at) / RFU RASL12 (11751679_a_at) / Fold change /veh RASL12 (11751679_a_at) / RFU CDKN2B (11736163_a_at) / Fold change /veh CDKN2B (11736163_a_at) / RFU PRF1 (11729649_at) / Fold change /veh PRF1 (11729649_at) / RFU, ZNF638 /// ZNF638-IT1 / Fold change vs veh, ZNF638 /// ZNF638-IT1 / RFU, PANK3 / Fold change vs veh, PANK3 / RFU, SH3YL1 / Fold change vs veh, SH3YL1 / RFU, ZEB2 / Fold change vs veh, ZEB2 / RFU, NRIP1 / Fold change vs veh, NRIP1 / RFU, PTTG1IP / Fold change vs veh, PTTG1IP / RFU, CAPN2 / Fold change vs veh, CAPN2 / RFU, MED14 / Fold change vs veh, MED14 / RFU, SNORA58 / Fold change vs veh, SNORA58 / RFU, C1orf63 / Fold change vs veh, C1orf63 / RFU, LRRFIP1 / Fold change vs veh, LRRFIP1 / RFU, NDUFAF7 / Fold change vs veh, NDUFAF7 / RFU, SLC12A2 / Fold change vs veh, SLC12A2 / RFU, IBTK / Fold change vs veh, IBTK / RFU, ESF1 / Fold change vs veh, ESF1 / Fold change vs veh, TMEM50B / RFU, TAOK1 / Fold change vs veh, TAOK1 / RFU, ACBD3 / Fold change vs veh, ACBD3 / RFU, TMA16 / Fold change vs veh, TMA16 / RFU, RWDD3 / Fold change vs veh, RWDD3 / RFU, BCAT1 / Fold change vs veh, BCAT1 / RFU, EDEM3 / Fold change vs veh, EDEM3 / RFU, TMEM33 / Fold change vs veh, TMEM33 / RFU, WDR75 / Fold change vs veh, WDR75 / RFU, AHCTF1 / Fold change vs veh, AHCTF1 / RFU, TFRC / Fold change vs veh, TFRC / RFU, ZDHHC17 / Fold change vs veh, ZDHHC17 / RFU, NOM1 / Fold change vs veh, NOM1 / RFU, ARL8B / Fold change vs veh, ARL8B / RFU, ZBTB11 / Fold change vs veh, ZBTB11 / RFU, TAMM41 / Fold change vs veh, TAMM41 / RFU, KIAA1704 /// LOC100996395 / Fold change vs veh, KIAA1704 /// LOC100996395 / RFU, ING1 / Fold change vs veh, ING1 / RFU, TRMT61B / Fold change vs veh, TRMT61B / RFU, FUBP3 / Fold change vs veh, FUBP3 / RFU, TP53 / Fold change vs veh, TP53 / RFU, TNKS2 / Fold change vs veh, TNKS2 / RFU, ZFP14 / Fold change vs veh, ZFP14 / RFU, ACTR2 / Fold change vs veh, ACTR2 / RFU, PPP3R1 / Fold change vs veh, PPP3R1 / RFU, PIK3R1 / Fold change vs veh, PIK3R1 / RFU, HNRNPA1 / Fold change vs veh, HNRNPA1 / RFU, RNF170 / Fold change vs veh, RNF170 / RFU, ZNF28 / Fold change vs veh, ZNF28 / RFU, RNGTT / Fold change vs veh, RNGTT / RFU, OGT / Fold change vs veh, OGT / RFU, BRD1 / Fold change vs veh, BRD1 / RFU, MARS / Fold change vs veh, MARS / RFU, ZNF655 / Fold change vs veh, ZNF655 / RFU, FAHD1 / Fold change vs veh, FAHD1 / RFU, BDP1 / Fold change vs veh, BDP1 / RFU, LRRCC1 / Fold change vs veh, LRRCC1 / RFU, ARID1A / Fold change vs veh, ARID1A / RFU, ZNF146 / Fold change vs veh, ZNF146 / RFU, ZNF330 / Fold change vs veh, ZNF330 / RFU, GPN3 / Fold change vs veh, GPN3 / RFU, C9orf123 / Fold change vs veh, C9orf123 / RFU, N4BP2L2 / Fold change vs veh, N4BP2L2 / RFU, ARFIP1 / Fold change vs veh, ARFIP1 / RFU, FAM179B / Fold change vs veh, FAM179B / RFU, BCL10 / Fold change vs veh, BCL10 / RFU, UHRF1BP1L / Fold change vs veh, UHRF1BP1L / RFU, BET1 / Fold change vs veh, BET1 / RFU, CNOT2 / Fold change vs veh, CNOT2 / RFU, ZNF268 / Fold change vs veh, ZNF268 / Fold change vs veh, ZNF507 / RFU, DGCR2 / Fold change vs veh, DGCR2 / RFU, WDSUB1 / Fold change vs veh, WDSUB1 / Fold change vs veh, HSP90B1 /// MIR3652 / RFU, ADSS / Fold change vs veh, ADSS / RFU, GK / Fold change vs veh, GK / RFU, ZNF148 / Fold change vs veh, ZNF148 / RFU, TAF9 / Fold change vs veh, TAF9 / RFU, SLC1A5 / Fold change vs veh, SLC1A5 / RFU, SLMO2 / Fold change vs veh, SLMO2 / RFU, ABCC4 / Fold change vs veh, ABCC4 / RFU, LOC101060439 /// RAP1B / Fold change vs veh, LOC101060439 /// RAP1B / RFU, RFX7 / Fold change vs veh, RFX7 / RFU, GTPBP10 / Fold change vs veh, GTPBP10 / RFU, CNEP1R1 / Fold change vs veh, CNEP1R1 / RFU, BIVM-ERCC5 /// ERCC5 / Fold change vs veh, BIVM-ERCC5 /// ERCC5 / RFU, ILF3 / Fold change vs veh, ILF3 / RFU 11762660_at / Fold change /veh 11762660_at / RFU VCAN (11757783_s_at) / Fold change /veh VCAN (11757783_s_at) / RFU DDX43 (11728927_at) / Fold change /veh DDX43 (11728927_at) / RFU KRT8 (11758188_x_at) / Fold change /veh KRT8 (11758188_x_at) / RFU NKD1 (11759106_at) / Fold change /veh NKD1 (11759106_at) / RFU SRD5A1 (11742802_a_at) / Fold change /veh SRD5A1 (11742802_a_at) / RFU TPSAB1 /// TPSB2 (11721975_s_at) / Fold change /veh TPSAB1 /// TPSB2 (11721975_s_at) / RFU GSTM3 (11746129_a_at) / Fold change /veh GSTM3 (11746129_a_at) / RFU IL23R (11737362_x_at) / Fold change /veh IL23R (11737362_x_at) / RFU TMEM51 (11727254_a_at) / Fold change /veh TMEM51 (11727254_a_at) / RFU PIWIL2 (11732686_x_at) / Fold change /veh PIWIL2 (11732686_x_at) / RFU ORM1 (11744905_x_at) / Fold change /veh ORM1 (11744905_x_at) / RFU CCDC152 (11743942_at) / Fold change /veh CCDC152 (11743942_at) / RFU ECM1 (11717891_a_at) / Fold change /veh ECM1 (11717891_a_at) / RFU IL23R (11748794_a_at) / Fold change /veh IL23R (11748794_a_at) / RFU TNFAIP8L3 (11732012_x_at) / Fold change /veh TNFAIP8L3 (11732012_x_at) / RFU MBOAT4 (11741988_at) / Fold change /veh MBOAT4 (11741988_at) / RFU 11764193_at / Fold change /veh 11764193_at / RFU TMEM53 (11763286_at) / Fold change /veh TMEM53 (11763286_at) / RFU MAGEB2 (11727129_at) / Fold change /veh MAGEB2 (11727129_at) / RFU TMEM200A (11744735_a_at) / Fold change /veh TMEM200A (11744735_a_at) / RFU CCDC152 (11751479_a_at) / Fold change /veh CCDC152 (11751479_a_at) / RFU FAM211A (11726209_a_at) / Fold change /veh FAM211A (11726209_a_at) / RFU RGS16 (11746705_a_at) / Fold change /veh RGS16 (11746705_a_at) / RFU VCAN (11755009_s_at) / Fold change /veh VCAN (11755009_s_at) / RFU RHOB (11743442_s_at) / Fold change /veh RHOB (11743442_s_at) / RFU RGS16 (11720943_a_at) / Fold change /veh RGS16 (11720943_a_at) / RFU RGS16 (11720944_at) / Fold change /veh RGS16 (11720944_at) / RFU, VPS4B / Fold change vs veh, VPS4B / RFU, CREB1 / Fold change vs veh, CREB1 / RFU, DNAJC13 / Fold change vs veh, DNAJC13 / RFU, GNAQ / Fold change vs veh, GNAQ / RFU, CDK5R1 / Fold change vs veh, CDK5R1 / RFU, ZRANB3 / Fold change vs veh, ZRANB3 / RFU, CUL4A / Fold change vs veh, CUL4A / RFU, CCNY / Fold change vs veh, CCNY / RFU, UFL1 / Fold change vs veh, UFL1 / RFU, COG3 / Fold change vs veh, COG3 / RFU, DIAPH2 / Fold change vs veh, DIAPH2 / RFU, SKA2 / Fold change vs veh, SKA2 / RFU, AFF3 / Fold change vs veh, AFF3 / RFU, LMF1 / Fold change vs veh, LMF1 / RFU, IPO11 / Fold change vs veh, IPO11 / RFU, DFFB / Fold change vs veh, DFFB / RFU, FOXP1 / Fold change vs veh, FOXP1 / RFU, CARD8 / Fold change vs veh, CARD8 / RFU, STRN3 / Fold change vs veh, STRN3 / RFU, ADK / Fold change vs veh, ADK / RFU, RASSF2 / Fold change vs veh, RASSF2 / RFU, WIPF1 / Fold change vs veh, WIPF1 / RFU, LARP1B / Fold change vs veh, LARP1B / RFU, RASA1 / Fold change vs veh, RASA1 / RFU, RB1 / Fold change vs veh, RB1 / RFU, PPFIA1 / Fold change vs veh, PPFIA1 / RFU, MAT2A / Fold change vs veh, MAT2A / RFU, CCT5 / Fold change vs veh, CCT5 / RFU, WDR92 / Fold change vs veh, WDR92 / RFU, CUX1 / Fold change vs veh, CUX1 / RFU, TTC7A / Fold change vs veh, TTC7A / RFU, TMEM135 / Fold change vs veh, TMEM135 / RFU, DEPTOR / Fold change vs veh, DEPTOR / RFU, CPM / Fold change vs veh, CPM / RFU, DNAJB6 / Fold change vs veh, DNAJB6 / RFU, CACNA2D3 / Fold change vs veh, CACNA2D3 / RFU, DTX4 / Fold change vs veh, DTX4 / RFU, TFCP2 / Fold change vs veh, TFCP2 / RFU, GMCL1 /// GMCL1P1 / Fold change vs veh, GMCL1 /// GMCL1P1 / RFU, AEBP2 / Fold change vs veh, AEBP2 / RFU, SNHG1 /// SNORD22 /// SNORD25 /// SNORD26 /// SNORD27 /// SNORD28 /// SNORD29 /// SNORD31 / Fold change vs veh, SNHG1 /// SNORD22 /// SNORD25 /// SNORD26 /// SNORD27 /// SNORD28 /// SNORD29 /// SNORD31 / Fold change (Aza/veh), C12orf56 (ProbeSet 11735607_a_at) / Fold change (ACY-1035/veh), C12orf56 (ProbeSet 11735607_a_at) / Fold change (Aza/veh), FGFR1OP (ProbeSet 11751329_s_at) / Fold change (ACY-1035/veh), FGFR1OP (ProbeSet 11751329_s_at) / Fold change (Aza/veh), VPS36 (ProbeSet 11739960_a_at) / Fold change (ACY-1035/veh), VPS36 (ProbeSet 11739960_a_at) / RFU SYPL1 (11715823_x_at) / Fold change /veh SYPL1 (11715823_x_at) / RFU IGFBP7 (11715501_s_at) / Fold change /veh IGFBP7 (11715501_s_at) / RFU REEP3 (11722064_at) / Fold change /veh REEP3 (11722064_at) / RFU IGLL1 (11728026_x_at) / Fold change /veh IGLL1 (11728026_x_at): dose or concentration left out as unconfirmed
Conditions: ProbeSet 11720154_at; LIST B

## Nc1ccc(-c2cccs2)cc1NC(=O)c1ccc2c(c1)cc(C1CC1)n2CCN1CCOCC1 [ACY-1035]
  RFU, NRIP1: 473.81 RFU

Reference: PMC5218480 (PLoS ONE, 2017)
